Where “and” joins values, the source holds several entries; their conditions need not be identical. Equal entries are not always repeated. Inconclusive results and toxic doses are left out.
System: BDF1 mice, P815 leukemia ip, survival T/C
Assay: NCI In Vivo Anticancer Drug Screen. Data for tumor model P815 Mast Cell Leukemia (Ascitic) (intraperitoneal) in B6D2F1 (BDF1) mice
Details: higher = longer survival
Procedure: The antitumor activity of compounds was measured in mice bearing transplantable tumors. Survival or tumor size were measured and the results are expressed as the measurement made in the treated group (T) divided by the measurement made in the vehicle treated control group (C). The tumor model used in this assay is P815 Mast Cell Leukemia (Ascitic) (intraperitoneal) in B6D2F1 (BDF1) mice

[1] = endpoint: survival time, mean or median, dose: 8.0 mg/kg/injection, schedule: Q01DX010 (ip), vehicle: saline
[2] = endpoint: survival time, mean or median, dose: 18.0 mg/kg/injection, schedule: Q01DX010 (ip), vehicle: saline

## CN(C)/N=N/c1nc[nH]c1C(N)=O
endpoint: survival time, mean or median, dose: 25.0 mg/kg/injection, schedule: Q01DX015 (ip), vehicle: carboxymethylcellulose (CMC)
  T/C: 103 % of control
endpoint: survival time, mean or median, dose: 50.0 mg/kg/injection, schedule: Q01DX015 (ip), vehicle: carboxymethylcellulose (CMC)
  T/C: 110 % of control
endpoint: survival time, mean or median, dose: 150.0 mg/kg/injection, schedule: Q01DX015 (ip), vehicle: carboxymethylcellulose (CMC)
  T/C: 96 % of control

## c1ccc(CNc2ncnc3[nH]ncc23)cc1
[1]
  T/C: 100 % of control and 109 % of control
endpoint: survival time, mean or median, dose: 16.0 mg/kg/injection, schedule: Q01DX010 (ip), vehicle: saline
  T/C: 100 % of control
endpoint: survival time, mean or median, dose: 32.0 mg/kg/injection, schedule: Q01DX010 (ip), vehicle: saline
  T/C: 109 % of control
endpoint: survival time, mean or median, dose: 64.0 mg/kg/injection, schedule: Q01DX010 (ip), vehicle: saline
  T/C: 95 % of control and 109 % of control

## COc1ccc(CSc2ncnc3nc[nH]c23)cc1
endpoint: survival time, mean or median, dose: 62.5 mg/kg/injection, schedule: Q01DX015 (ip), vehicle: carboxymethylcellulose (CMC)
  T/C: 91 % of control

## NC12CC3CC(CC(C3)C1)C2
endpoint: survival time, mean or median, dose: 25.0 mg/kg/injection, schedule: Q01DX010 (ip), vehicle: saline
  T/C: 100 % of control
endpoint: survival time, mean or median, dose: 50.0 mg/kg/injection, schedule: Q01DX010 (ip), vehicle: saline
  T/C: 100 % of control
endpoint: survival time, mean or median, dose: 100.0 mg/kg/injection, schedule: Q01DX010 (ip), vehicle: saline
  T/C: 105 % of control

## NOCc1ccsn1
endpoint: median survival time, dose: 15.0 mg/kg/injection, schedule: Q01DX010 (ip), vehicle: saline sonified
  T/C: 100 % of control
endpoint: median survival time, dose: 30.0 mg/kg/injection, schedule: Q01DX010 (ip), vehicle: saline sonified
  T/C: 100 % of control
endpoint: median survival time, dose: 60.0 mg/kg/injection, schedule: Q01DX010 (ip), vehicle: saline sonified
  T/C: 93 % of control

## CN(C)c1ccc(/C=C/c2ccnc3ccccc23)cc1
endpoint: survival time, mean or median, dose: 5.0 mg/kg/injection, schedule: Q01DX010 (ip), vehicle: saline
  T/C: 100 % of control
endpoint: survival time, mean or median, dose: 10.0 mg/kg/injection, schedule: Q01DX010 (ip), vehicle: saline
  T/C: 88 % of control and 94 % of control
endpoint: survival time, mean or median, dose: 20.0 mg/kg/injection, schedule: Q01DX010 (ip), vehicle: saline
  T/C: 88 % of control and 100 % of control
endpoint: survival time, mean or median, dose: 40.0 mg/kg/injection, schedule: Q01DX010 (ip), vehicle: saline
  T/C: 100 % of control

## CCCNC(=NC)c1ccc(NC(=O)c2ccc(C(=O)Nc3ccc(C(=NC)NCCC)cc3)cc2)cc1
endpoint: survival time, mean or median, dose: 5.2 mg/kg/injection, schedule: Q01DX010 (ip), vehicle: saline
  T/C: 121 % of control
[1]
  T/C: 121 % of control
endpoint: survival time, mean or median, dose: 12.0 mg/kg/injection, schedule: Q01DX010 (ip), vehicle: saline
  T/C: 121 % of control
[2]
  T/C: 100 % of control

## CN=C(NC)c1ccc(NC(=O)c2ccc(C(=O)Nc3ccc(C(=NC)NC)cc3)c(Cl)c2)cc1
[2]
  T/C: 91 % of control
endpoint: survival time, mean or median, dose: 27.0 mg/kg/injection, schedule: Q01DX010 (ip), vehicle: saline
  T/C: 100 % of control

## OCC1OC(n2cnc3c(Cl)ncnc32)C(O)C1O (stereo not given)
endpoint: survival time, mean or median, dose: 62.5 mg/kg/injection, schedule: Q01DX010 (ip), vehicle: saline
  T/C: 104 % of control and 108 % of control
endpoint: survival time, mean or median, dose: 125.0 mg/kg/injection, schedule: Q01DX010 (ip), vehicle: saline
  T/C: 100 % of control and 104 % of control
endpoint: survival time, mean or median, dose: 250.0 mg/kg/injection, schedule: Q01DX010 (ip), vehicle: saline
  T/C: 91 % of control and 100 % of control
endpoint: survival time, mean or median, dose: 500.0 mg/kg/injection, schedule: Q01DX010 (ip), vehicle: saline
  T/C: 95 % of control

## NOCc1cscn1
endpoint: median survival time, dose: 25.0 mg/kg/injection, schedule: Q01DX010 (ip), vehicle: saline sonified
  T/C: 87 % of control
endpoint: median survival time, dose: 50.0 mg/kg/injection, schedule: Q01DX010 (ip), vehicle: saline sonified
  T/C: 100 % of control

## CC(=O)NC1=C(N2CC2)C(=O)C(NC(C)=O)=C(N2CC2)C1=O
endpoint: survival time, mean or median, dose: 0.5 mg/kg/injection, schedule: Q01DX015 (ip), vehicle: carboxymethylcellulose (CMC)
  T/C: 203 % of control
endpoint: survival time, mean or median, dose: 1.0 mg/kg/injection, schedule: Q01DX015 (ip), vehicle: carboxymethylcellulose (CMC)
  T/C: 103 % of control

## N#CCSc1ncnc2nc[nH]c12
endpoint: survival time, mean or median, dose: 7.5 mg/kg/injection, schedule: Q01DX010 (ip), vehicle: saline
  T/C: 100 % of control
endpoint: survival time, mean or median, dose: 15.0 mg/kg/injection, schedule: Q01DX010 (ip), vehicle: saline
  T/C: 100 % of control and 111 % of control
endpoint: survival time, mean or median, dose: 30.0 mg/kg/injection, schedule: Q01DX010 (ip), vehicle: saline
  T/C: 100 % of control and 111 % of control
endpoint: survival time, mean or median, dose: 60.0 mg/kg/injection, schedule: Q01DX010 (ip), vehicle: saline
  T/C: 94 % of control and 122 % of control

## NC(=O)N(CCCl)N=O
endpoint: survival time, mean or median, dose: 0.5 mg/kg/injection, schedule: Q01DX010 (ip), vehicle: saline
  T/C: 175 % of control
endpoint: survival time, mean or median, dose: 1.0 mg/kg/injection, schedule: Q01DX010 (ip), vehicle: saline
  T/C: 210 % of control
endpoint: survival time, mean or median, dose: 2.0 mg/kg/injection, schedule: Q01DX010 (ip), vehicle: saline
  T/C: 100 % of control
endpoint: survival time, mean or median, dose: 4.0 mg/kg/injection, schedule: Q01DX010 (ip), vehicle: saline
  T/C: 105 % of control

Source: PubChem BioAssay AID318 (DTP/NCI, 2004)
